Our source for the EC50 and Emax values is patent US11111251B2, “Positive allosteric modulators of the muscarinic acetylcholine receptor M1” (Vanderbilt University, priority 2016, dated 2021).

Like-named read-outs stand apart in the source and are kept apart here.

The target of the test is T1, human mAChR M1 (Homo sapiens, UniProt P11229).
T1 sequence (P11229 1-460): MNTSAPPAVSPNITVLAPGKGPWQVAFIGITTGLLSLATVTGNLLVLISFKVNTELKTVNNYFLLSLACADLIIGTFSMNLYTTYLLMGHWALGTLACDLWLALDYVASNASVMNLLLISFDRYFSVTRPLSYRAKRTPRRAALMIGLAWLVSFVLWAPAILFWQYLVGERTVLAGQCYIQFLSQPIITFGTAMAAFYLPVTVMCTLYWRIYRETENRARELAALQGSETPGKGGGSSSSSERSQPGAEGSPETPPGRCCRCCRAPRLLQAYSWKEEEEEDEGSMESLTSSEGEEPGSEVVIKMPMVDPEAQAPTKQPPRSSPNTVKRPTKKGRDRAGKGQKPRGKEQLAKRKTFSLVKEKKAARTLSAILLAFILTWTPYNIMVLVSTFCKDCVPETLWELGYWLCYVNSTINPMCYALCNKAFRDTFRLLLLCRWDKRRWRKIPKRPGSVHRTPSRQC
In words: mAChR M1 cell-based functional assay: calcium mobilization, positive allosteric modulator mode (increase in EC20 acetylcholine response). To be noted: for Emax: read-out: Human M1 Emax (%). Summed up:
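PAM potency reflects the concentration-dependent increase in calcium response to an EC20 acetylcholine challenge, given 144 s into a 300 s read after compound addition at 4 s (EC80 follows at 230 s). Cells were hM1-expressing CHO-K1, loaded 50 min with Fluo-4 AM. Curves used 11 points at 1:3 dilutions and four-parameter logistic fitting.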
On the technique in general: Calcium flux is commonly read through the fluorescence of an indicator in the cells.

Setting [1] is: Table 2, human M1, read-out: Human M1 EC50.

The EC50 is the concentration that produces a half-maximal response. Broadly, the Emax is the size of the effect at its maximum, as opposed to the concentration needed. In the case of `O=C(N[C@H]1CC[C@@H]1O)c1cc(Cc2ccc(C(F)(F)F)nc2)c2sccc2n1` [Compound 87, N-[(1S,2S)-2-hydroxycyclobutyl]-7-[[6-(trifluoromethyl)-3-pyridyl]methyl]thieno[3,2-b]pyridine-5-carboxamide], the concentration for a half-maximal effect (EC50) under setting [1] is 3130 nM. The maximum response (Emax) (Table 2, human M1) stood at 84.9%.

As for `Cc1nn(C)cc1-c1ccc(Cc2cc(C(=O)N[C@H]3CCC[C@@H]3O)nc3ccsc23)cc1` [Compound 247, 7-[[4-(1,3-dimethylpyrazol-4-yl)phenyl]methyl]-N-[(1S,2S)-2-hydroxycyclopentyl]thieno[3,2-b]pyridine-5-carboxamide], the concentration for a half-maximal effect (EC50) under setting [1] was 4060 nM. The Emax (Table 2, human M1) was determined as 30.6%.

Take `O=C(NC1CCOCC1)c1ccc(Cc2cc(C(=O)NC3CCOCC3)nc3ccsc23)cc1` [Compound 407, N-tetrahydropyran-4-yl-7-[[4-(tetrahydropyran-4-ylcarbamoyl)phenyl]methyl]thieno[3,2-b]pyridine-5-carboxamide]: the EC50 under setting [1] was 368 nM. Further, the maximal response (Emax) (Table 2, human M1) was determined as 69.9%.

Turning to `CO[C@@H]1CCCC[C@H]1NC(=O)c1cc(Cc2ccc(-n3cccn3)cc2)c2sccc2n1` [Compound 76, N-[(1R,2R)-2-methoxycyclohexyl]-7-[(4-pyrazol-1-ylphenyl)methyl]thieno[3,2-b]pyridine-5-carboxamide], the 50% effective concentration (EC50) under setting [1] came out at 739 nM. Further, for the setting “Table 2, human M1”, the Emax came to 67.6%.

For the compound `CO[C@H]1CCCC[C@@H]1NC(=O)c1cc(Cc2ccc(-c3cscn3)cc2)c2sccc2n1` [Compound 218, N-[(1S,2S)-2-methoxycyclohexyl]-7-[(4-thiazol-4-ylphenyl)methyl]thieno[3,2-b]pyridine-5-carboxamide], the EC50 under setting [1] is above 10000 nM. Also, under “Table 2, human M1”, the Emax was determined as 52.2%.

Take `Cn1cc(-c2ccc(Cc3cc(C(=O)N[C@H]4CCCCC[C@@H]4O)nc4ccsc34)cn2)cn1` [Compound 226, N-[(1S,2S)-2-hydroxycycloheptyl]-7-[[6-(1-methylpyrazol-4-yl)-3-pyridyl]methyl]thieno[3,2-b]pyridine-5-carboxamide]: under setting [1], the EC50 is 9.36 nM. Besides, the Emax (Table 2, human M1) came to 66.2%.

In the case of `O=C(c1cc(Cc2ccc(-n3cccn3)cc2)c2sccc2n1)N1[C@@H]2CC[C@H]1CC(O)C2` (stereo partly drawn) [Compound 80, [(1S,5R)-3-hydroxy-8-azabicyclop[3.2.1]octan-8-yl]-[7-[(4-pyrazol-1-ylphenyl)methyl]thieno[3,2-b]pyridin-5-yl]methanone], the Emax was determined as 65.9%. Also, the EC50 under setting [1] was above 10000 nM.

With `CCOC(c1ccc(C)nc1)c1cc(C(=O)N[C@@H]2CCCC[C@H]2O)nc2ccsc12` (stereo partly drawn) [Compound 86, 7-[ethoxy-(6-methyl-3-pyridyl)methyl]-N-[(1R,2R)-2-hydroxycyclohexyl]thieno[3,2-b]pyridine-5-carboxamide], under setting [1], the EC50 worked out at 255 nM. In addition, for the setting “Table 2, human M1”, the maximum response (Emax) was 87.7%.

Regarding `O=C(N[C@H]1CC[C@@H]1O)c1cc(Cc2ccc(-c3nccs3)cc2)c2sccc2n1` [Compound 297, N-[(1S,2S)-2-hydroxycyclobutyl]-7-[(4-thiazol-2-ylphenyl)methyl]thieno[3,2-b]pyridine-5-carboxamide], the half-maximal effective concentration (EC50) under setting [1] worked out at 225 nM. In addition, where the note is “Table 2, human M1”, the maximal effect (Emax) is 76.4%.

Regarding `Cn1ccc(-c2ccc(Cc3cc(C(=O)N[C@H]4CC[C@@H]4O)nc4ccn(C)c34)cn2)n1` [Compound 513, N-[(1S,2S)-2-hydroxycyclobutyl]-1-methyl-7-[[6-(1-methylpyrazol-3-yl)-3-pyridyl]methyl]pyrrolo[3,2-b]pyridine-5-carboxamide], the EC50 under setting [1] was 712 nM. Besides, the Emax (Table 2, human M1) worked out at 77.8%.

On to `Cn1ccc(-c2ccc(Cc3cc(C(=O)NC4COC4)nc4ccsc34)cn2)n1` [Compound 415], for which the EC50 under setting [1] turned out to be 8350 nM. Also, the maximal effect (Emax) (Table 2, human M1) was 63%.

In the case of `Cn1ccc2nc(C(=O)NC3CCOC(C)(C)C3)cc(Cc3ccc(-c4nccs4)cc3)c21` (centres unmarked) [Compound 484, N-(2,2-dimethyltetrahydropyran-4-yl)-1-methyl-7-[(4-thiazol-2-ylphenyl)methyl]pyrrolo[3,2-b]pyridine-5-carboxamide], the Emax was found to be 47.2%. Under setting [1], the concentration giving a half-maximal response (EC50) amounted to 704 nM.

Take `O=C(NC1CCOCC1)c1cc(Cc2ccc(-c3cscn3)cc2)c2sccc2n1` [Compound 232, N-tetrahydropyran-4-yl-7-[(4-thiazol-4-ylphenyl)methyl]thieno[3,2-b]pyridine-5-carboxamide]: the EC50 under setting [1] worked out at 134 nM. In addition, the maximal response (Emax) (Table 2, human M1) came out at 75.7%.

With `Cn1cc(-c2ccc(Cc3cc(C(=O)N[C@H]4CCOC[C@@H]4O)nc4ccsc34)cc2)cn1` [Compound 267, N-[(3R,4S)-3-hydroxytetrahydropyran-4-yl]-7-[[4-(1-methylpyrazol-4-yl)phenyl]methyl]thieno[3,2-b]pyridine-5-carboxamide], the concentration for a half-maximal effect (EC50) under setting [1] amounted to 3.41 nM. For the setting “Table 2, human M1”, the maximum response (Emax) was 50.9%.

With `CO[C@@H]1CCCC[C@H]1NC(=O)c1cc(Cc2cnc(C)nc2)c2sccc2n1` [Compound 130, N-[(1R,2R)-2-methoxycyclohexyl]-7-[(2-methylpyrimidin-5-yl)methyl]thieno[3,2-b]pyridine-5-carboxamide], under setting [1], the EC50 is above 10000 nM. Besides, where the note is “Table 2, human M1”, the Emax came out at 20.1%.

For the compound `Cc1nc(-c2ccc(Cc3cc(C(=O)NC4CCCCNC4=O)nc4ccsc34)cc2)cs1` (centres unmarked) [Compound 199, 7-[[4-(2-methylthiazol-4-yl)phenyl]methyl]-N-(2-oxoazepan-3-yl)thieno[3,2-b]pyridine-5-carboxamide], the EC50 under setting [1] is 1420 nM. For the same compound, for the setting “Table 2, human M1”, the maximal effect (Emax) turned out to be 88.1%.

Turning to `Cn1cc2c(-c3ccc(Oc4cc(C(=O)N[C@H]5COCC[C@@H]5O)nc5ccsc45)c(F)c3)cccc2n1` [Compound 14], the EC50 (Table 1, mAChR M1 cell-based functional assay, PAM mode, species not given, read-out: EC50) came to 4250 nM.

`Cc1nc(-c2ccc(Cc3cc(C(=O)N[C@@H]4CCCCC[C@H]4O)nc4ccsc34)cc2)co1` [Compound 170, N-[(1R,2R)-2-hydroxycycloheptyl]-7-[[4-(2-methyloxazol-4-yl)phenyl]methyl]thieno[3,2-b]pyridine-5-carboxamide]: the half-maximal effective concentration (EC50) under setting [1] amounted to 150 nM. Moreover, for the setting “Table 2, human M1”, the maximum response (Emax) was determined as 82.9%.

With `O=C(NC1CN(C2COC2)C1)c1cc(Cc2ccc(-n3cccn3)cc2)c2sccc2n1` [Compound 433, N-[1-(oxetan-3-yl)azetidin-3-yl]-7-[(4-pyrazol-1-ylphenyl)methyl]thieno[3,2-b]pyridine-5-carboxamide], the EC50 under setting [1] was determined as 1770 nM. Besides, the Emax (Table 2, human M1) is 65.4%.

For `Cc1nc(-c2ccc(Cc3cc(C(=O)N[C@H]4CCCOC4)nc4ccsc34)cc2)cs1` [Compound 189, 7-[[4-(2-methylthiazol-4-yl)phenyl]methyl]-N-[(3S)-tetrahydropyran-3-yl]thieno[3,2-b]pyridine-5-carboxamide], the EC50 under setting [1] is 6270 nM. Further, the Emax (Table 2, human M1) stood at 72%.

Consider `Cn1ncc2nc(C(=O)N[C@H]3CCC[C@@H]3O)cc(Cc3ccc(-n4cccn4)cc3)c21` [Compound 497, N-[(1S,2S)-2-hydroxycyelopentyl]-1-methyl-7-[(4-pyrazol-1-ylphenyl)methyl]pyrazolo-[4,3-b]pyridine-5-carboxamide], for which the EC50 under setting [1] turned out to be 1180 nM. Moreover, the maximal effect (Emax) (Table 2, human M1) was 68.1%.

For `Cn1ccc2nc(C(=O)NC3CC(F)(F)C3)cc(Cc3ccc(-c4nccs4)cc3)c21` [Compound 487, N-(3,3-difluorocyclobutyl)-1-methyl-7-[(4-thiazol-2-ylphenyl)methyl]pyrrolo[3,2-b]pyridine-5-carboxamide], the concentration for a half-maximal effect (EC50) under setting [1] was 819 nM. The Emax (Table 2, human M1) came to 25.5%.

For the compound `Cc1nc(-c2ccc(Cc3cc(C(=O)N[C@H]4CC[C@@H]4O)nc4ccsc34)cc2)co1` [Compound 146, N-[(1S,2S)-2-hydroxycyclobutyl]-7-[[4-(2-methyloxazol-4-yl)phenyl]methyl]thieno[3,2-b]pyridine-5-carboxamide], the EC50 under setting [1] worked out at 336 nM. Besides, the Emax (Table 2, human M1) was found to be 90.7%.

As for `Cn1ccc(-c2ccc(Cc3cc(C(=O)NC4CCOC(C)(C)C4)nc4ccn(C)c34)cn2)n1` (centres unmarked) [Compound 504, N-(2,2-dimethyltetrahydropyran-4-yl)-1-methyl-7-[[6-(1-methylpyrazol-3-yl)-3-pyridyl]methyl]pyrrolo[3,2-b]pyridine-5-carboxamide;], under setting [1], the concentration giving a half-maximal response (EC50) came out at 1350 nM. For the same compound, where the note is “Table 2, human M1”, the Emax was 79.5%.

As for `O=C(NCC1CCCO1)c1cc(Cc2ccc(-c3nccs3)cc2)c2sccc2n1` (centres unmarked) [Compound 384, N-(tetrahydrofuran-2-ylmethyl)-7-[(4-thiazol-2-ylphenyl)methyl]thieno[3,2-b]pyridine-5-carboxamide], under setting [1], the EC50 was determined as 1370 nM. Moreover, under “Table 2, human M1”, the Emax is 65.2%.

As to `Cn1ccc(-c2ccc(Cc3cc(C(=O)NC4CCOC(C)(C)C4)nc4ccsc34)cn2)n1` (centres unmarked) [Compound 378, N-(2,2-dimethyltetrahydropyran-4-yl)-7-[[6-(1-methylpyrazol-3-yl)-3-pyridyl]methyl]thieno[3,2-b]pyridine-5-carboxamide], under setting [1], the EC50 stood at 167 nM. Further, for the setting “Table 2, human M1”, the maximal effect (Emax) came out at 58.9%.

`O=C(NC1CCC(F)(F)CC1)c1cc(Cc2ccc(-c3nccs3)cc2)c2sccc2n1` [Compound 385, N-(4,4-difluorocyclohexyl)-7-[(4-thiazol-2-ylphenyl)methyl]thieno[3,2-b]pyridine-5-carboxamide]: under setting [1], the concentration giving a half-maximal response (EC50) was above 10000 nM. In addition, for the setting “Table 2, human M1”, the maximal response (Emax) was found to be 41.1%.
